Assays:
Assay type in all cases: in vivo
[1] = system: Pseudoperonospora cubensis; assay: Test of examining control effect on Pseudoperonospora cubensis (potted cucumber plants); conditions: 96 h, 10% wettable powder adjusted to 125 ppm, 15 ml/pot sprayed on potted cucumber plants one day before spray inoculation, assessed after 1 day wet chamber and 3 days greenhouse, read-out: Determination of control effect (preventive value) on Pseudoperonospora cubensis
How it was run: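 Cucumber plants (Sagamihanjiro, 2.5-leaf stage) sprayed with 125 ppm compound solution from 10% wettable powder, 15 ml/pot. One day later, spray-inoculated with P. cubensis conidia (1.0×10^4 cells/ml), kept 1 day at 21° C wet, then 3 days in greenhouse. Preventive value derived from lesion area relative to untreated plants.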

Sphaerotheca fuliginea = assay: Test of examining control effect on Sphaerotheca fuliginea (potted cucumber plants); conditions: Podosphaera fuliginea, 336 h; 10% wettable powder adjusted to 125 ppm, 15 ml/pot sprayed on potted cucumber plants one day before spray inoculation; assessed after 14 days in greenhouse; read-out: Determination of control effect (preventive value) on Sphaerotheca fuliginea
How it was run: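 Cucumber plants (Sagamihanjiro, 2nd leaf stage) sprayed with 125 ppm compound (from 10% wettable powder), inoculated one day later with S. fuliginea conidia (1.0×10^5 cells/ml); lesion area scored after 14 days in greenhouse. Preventive value vs untreated; ≥60% high, <60% low control.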

Phytophthora infestans = assay: whole plant or invertebrate; conditions: in Solanum lycopersicum, 96 h, read-out: Determination of control effect (preventive value)

SMILES	pest or weed control at 125 µg/mL [1]	pest or weed control at 125 µg/mL (Sphaerotheca fuliginea)	pest or weed control at 125 ppm (Phytophthora infestans)
COc1ccc(C#CCCNc2ncnc3sccc23)cc1 [compound 23]	60 to 100%	60 to 100%	60 to 100%
COCc1ccccc1C#CCCNc1ncnc2cc(Br)ccc12 [compound 320]	60 to 100%	60 to 100%	0 to 60%
CC(CC#Cc1ccc(Cl)cc1C(F)(F)F)Nc1ncnc2cccc(F)c12 (stereo not drawn) [compound 346]	60 to 100%	60 to 100%	0 to 60%
N#Cc1cc(F)ccc1C#CCCNc1ncnc2ccccc12 [compound 170]	60 to 100%	60 to 100%	60 to 100%
CC(C)OCc1ccccc1C#CCCNc1ncnc2ccccc12 [compound 154]	60 to 100%	60 to 100%	60 to 100%
COC(OC)c1ccccc1C#CCCNc1ncnc2ccccc12 [compound 149]	0 to 60%	0 to 60%	0 to 60%
Cn1cc(C#CCCNc2ncnc3ccccc23)ccc1=O [compound 203]	60 to 100%	0 to 60%	0 to 60%
FCc1ccccc1C#CCCNc1ncnc2ccccc12 [compound 99]	60 to 100%	60 to 100%	60 to 100%
Cc1c(Cl)ncnc1NCCC#Cc1ccccc1C(F)(F)F [compound 364]	60 to 100%	60 to 100%	0 to 60%
N#Cc1ccccc1C#CCCNc1ncnc2ccccc12 [compound 102]	60 to 100%	60 to 100%	60 to 100%
CC(CC#Cc1ccc(C#N)cc1C(F)(F)F)Nc1ncnc2sccc12 (stereo not drawn) [compound 260]	60 to 100%	60 to 100%	60 to 100%
COCc1ccccc1C#CCCNc1ncnc2cccc(Cl)c12 [compound 314]	60 to 100%	60 to 100%	0 to 60%
COCc1ccccc1C#CCCNc1ncnc2cc(F)ccc12 [compound 316]	60 to 100%	60 to 100%	60 to 100%
COCc1ccccc1C#CCCNc1ncnc2ccc(C#N)cc12 [compound 330]	60 to 100%	0 to 60%	60 to 100%
COCc1ccccc1C#CCCNc1ncnc2c(C)cc(Cl)cc12 [compound 327]	60 to 100%	0 to 60%	0 to 60%
COCc1ccccc1C#CCCNc1ncnc2cccc(F)c12 [compound 318]	60 to 100%	60 to 100%	60 to 100%
COc1ccc2cc(C#CCCNc3ncnc4ccccc34)ccc2c1 [compound 184]	60 to 100%	60 to 100%	60 to 100%
COCc1ccc2ccccc2c1C#CCCNc1ncnc2ccccc12 [compound 185]	60 to 100%	0 to 60%	0 to 60%
FCc1nc(C#CCCNc2ncnc3sccc23)cs1 [compound 68]	60 to 100%	60 to 100%	60 to 100%
COCc1ccccc1C#CCCNc1ncnc2ccc(Cl)cc12 [compound 313]	60 to 100%	60 to 100%	0 to 60%
C(#CCc1ccccc1)CCNc1ncnc2sccc12 [compound 9]	60 to 100%	60 to 100%	0 to 60%
Cc1cc(NCCC#Cc2ccc(Cl)cc2C(F)(F)F)ncn1 [compound 359]	0 to 60%	0 to 60%	0 to 60%
